Source: patent US9073855B2, “BCL-2 selective apoptosis-inducing agents for the treatment of cancer and immune diseases” (AbbVie Inc., priority 2008, dated 2015)

What was measured:
GST-Bcl-2 = GST-Bcl-2 (Homo sapiens, UniProt P10415); test: TR-FRET binding assay, GST-Bcl-2 with F-Bak peptide probe; details: TR-FRET Binding Affinity, GST-Bcl-2, F-Bak peptide probe
Summary of the method: (§1)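 Ki was derived with Wang's equation for competitive binding of two ligands. The read-out was time-resolved fluorescence after a 3 h room-temperature incubation, using a Tb-labelled antibody donor and the F-Bak peptide acceptor (excitation 340/35 nm). Test compounds entered as DMSO serial dilutions starting at 50 μM, which was the 2× concentration.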

GST-Bcl-XL = GST-Bcl-XL (Homo sapiens, UniProt Q07817); test: TR-FRET binding assay, GST-Bcl-XL with F-Bak peptide probe; details: TR-FRET Binding Affinity, GST-Bcl-XL, F-Bak peptide probe
Summary of the method: as §1

FL5.12/Bcl-2 cells = test: FL5.12/Bcl-2 cell viability assay under IL-3 withdrawal (CellTitre Glo); format: cell-based, murine; details: Mus musculus, IL-3 withdrawn 48 hrs, then 24 hrs with compound
Summary of the method: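 Viability measured by CellTitre Glo after FL5.12/Bcl-2 murine cells, starved of IL-3 for 48 hrs, were treated with compounds for another 24 hrs. Killing reflects inhibition of Bcl-2 sequestration of Bim and Puma.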

Chain of GST-Bcl-2 (P10415 whole entry): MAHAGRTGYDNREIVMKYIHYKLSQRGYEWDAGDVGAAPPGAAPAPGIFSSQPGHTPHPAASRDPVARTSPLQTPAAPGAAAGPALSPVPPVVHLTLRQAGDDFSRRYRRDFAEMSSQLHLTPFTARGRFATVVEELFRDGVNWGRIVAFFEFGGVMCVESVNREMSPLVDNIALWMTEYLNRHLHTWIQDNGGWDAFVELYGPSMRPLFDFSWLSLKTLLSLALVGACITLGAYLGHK
Chain of GST-Bcl-XL (Q07817 whole entry): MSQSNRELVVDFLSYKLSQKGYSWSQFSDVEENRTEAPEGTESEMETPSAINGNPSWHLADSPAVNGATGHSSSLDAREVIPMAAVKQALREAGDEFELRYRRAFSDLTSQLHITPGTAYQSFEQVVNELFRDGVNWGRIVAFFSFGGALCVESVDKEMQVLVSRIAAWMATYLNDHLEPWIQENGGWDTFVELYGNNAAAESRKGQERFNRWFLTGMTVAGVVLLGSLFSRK

`CN(C)CCOc1ccc(-c2ccc(Cl)cc2)c(CN2CCN(c3ccc(C(=O)NS(=O)(=O)c4ccc(NN5CCN(C)CC5)c([N+](=O)[O-])c4)c(Oc4cccc5[nH]ccc45)c3)CC2)c1` [Example 274, 4-[4-({4′-chloro-4-[2-(dimethylamino)ethoxy]-1,1′-biphenyl-2-yl}methyl)piperazin-1-yl]-2-(1H-indol-4-yloxy)-N-({4-[(4-methylpiperazin-1-yl)amino]-3-nitrophenyl}sulfonyl)benzamide] was tested, and the Ki (GST-Bcl-2) was 0.135 nM, the Ki (GST-Bcl-XL) was 32.9 nM and the EC50 (FL5.12/Bcl-2 cells) was 155 nM.
Compound `CC1(C)CCC(CN2CCN(c3ccc(C(=O)NS(=O)(=O)c4ccc(NCC5CCS(=O)(=O)C5)c([N+](=O)[O-])c4)c(Oc4ccc5[nH]ccc5c4)c3)CC2)=C(c2ccc(Cl)cc2)C1` (stereo not drawn) [Example 275, 4-(4-{[2-(4-chlorophenyl)-4,4-dimethylcyclohex-1-en-1-yl]methyl}piperazin-1-yl)-N-[(4-{[(1,1-dioxidotetrahydrothien-3-yl)methyl]amino}-3-nitrophenyl)sulfonyl]-2-(1H-indol-5-yloxy)benzamide] has a Ki (GST-Bcl-2) of 0.097 nM, a Ki (GST-Bcl-XL) of over 660 nM and an EC50 (FL5.12/Bcl-2 cells) of 38 nM.
`CC1(C)CCC(CN2CCN(c3ccc(C(=O)NS(=O)(=O)c4ccc(NC5CCS(=O)(=O)C5)c([N+](=O)[O-])c4)c(Oc4ccc5[nH]ccc5c4)c3)CC2)=C(c2ccc(Cl)cc2)C1` (stereo not drawn) [Example 276, 4-(4-{[2-(4-chlorophenyl)-4,4-dimethylcyclohex-1-en-1-yl]methyl}piperazin-1-yl)-N-({4-[(1,1-dioxidotetrahydrothien-3-yl)amino]-3-nitrophenyl}sulfonyl)-2-(1H-indol-5-yloxy)benzamide] was tested, and the Ki (GST-Bcl-2) was 0.144 nM, the Ki (GST-Bcl-XL) was 381 nM and the EC50 (FL5.12/Bcl-2 cells) was 62.2 nM.
Work on `CC1(C)CCC(CN2CCN(c3ccc(C(=O)NS(=O)(=O)c4ccc(NCC5CCOCC5)c(C(F)(F)F)c4)c(Oc4ccc5[nH]ccc5c4)c3)CC2)=C(c2ccc(Cl)cc2)C1` [Example 277, 4-(4-{[2-(4-chlorophenyl)-4,4-dimethylcyclohex-1-en-1-yl]methyl}piperazin-1-yl)-2-(1H-indol-5-yloxy)-N-{[4-[(tetrahydro-2H-pyran-4-ylmethyl)amino]-3-(trifluoromethyl)phenyl]sulfonyl}benzamide] yielded a Ki (GST-Bcl-2) of 29.7 nM, a Ki (GST-Bcl-XL) of over 660 nM and an EC50 (FL5.12/Bcl-2 cells) of over 500 nM.
With `CC1(C)CCC(CN2CCN(c3ccc(C(=O)NS(=O)(=O)c4ccc(CCC5OCCO5)c([N+](=O)[O-])c4)c(Oc4ccc5[nH]ccc5c4)c3)CC2)=C(c2ccc(Cl)cc2)C1` [Example 278, 4-(4-{[2-(4-chlorophenyl)-4,4-dimethylcyclohex-1-en-1-yl]methyl}piperazin-1-yl)-N-({4-[2-(1,3-dioxolan-2-yl)ethyl]-3-nitrophenyl}sulfonyl)-2-(1H-indol-5-yloxy)benzamide] the Ki (GST-Bcl-2) was 0.71 nM, the Ki (GST-Bcl-XL) was over 660 nM and the EC50 (FL5.12/Bcl-2 cells) was 153 nM.
`CC1(C)CCC(CN2CCN(c3ccc(C(=O)NS(=O)(=O)c4ccc(OCC5CCOCC5)c([N+](=O)[O-])c4)c(Oc4ccc5[nH]ccc5c4)c3)CC2)=C(c2ccc(Cl)cc2)C1` [Example 279, 4-(4-{[2-(4-chlorophenyl)-4,4-dimethylcyclohex-1-en-1-yl]methyl}piperazin-1-yl)-2-(1H-indol-5-yloxy)-N-{[3-nitro-4-(tetrahydro-2H-pyran-4-ylmethoxy)phenyl]sulfonyl}benzamide] showed a Ki (GST-Bcl-2) of 0.095 nM, a Ki (GST-Bcl-XL) of over 660 nM and an EC50 (FL5.12/Bcl-2 cells) of 16.2 nM.
Compound `CC1(C)CCC(CN2CCN(c3ccc(C(=O)NS(=O)(=O)c4ccc(NCCN5CCNC(=O)C5)c([N+](=O)[O-])c4)c(Oc4cccc5[nH]ccc45)c3)CC2)=C(c2ccc(Cl)cc2)C1` [Example 280, 4-(4-{[2-(4-chlorophenyl)-4,4-dimethylcyclohex-1-en-1-yl]methyl}piperazin-1-yl)-2-(1H-indol-4-yloxy)-N-[(3-nitro-4-{[2-(3-oxopiperazin-1-yl)ethyl]amino}phenyl)sulfonyl]benzamide] has a Ki (GST-Bcl-2) of 0.178 nM, a Ki (GST-Bcl-XL) of 195 nM and an EC50 (FL5.12/Bcl-2 cells) of 247 nM.
Work on `CN1CC(Nc2ccc(S(=O)(=O)NC(=O)c3ccc(N4CCN(CC5=C(c6ccc(Cl)cc6)CC(C)(C)CC5)CC4)cc3Oc3ccc4[nH]ccc4c3)cc2[N+](=O)[O-])CC1=O` (stereo not drawn) [Example 281, 4-(4-{[2-(4-chlorophenyl)-4,4-dimethylcyclohex-1-en-1-yl]methyl}piperazin-1-yl)-2-(1H-indol-5-yloxy)-N-({4-[(1-methyl-5-oxopyrrolidin-3-yl)amino]-3-nitrophenyl}sulfonyl)benzamide] yielded a Ki (GST-Bcl-2) of 0.076 nM, a Ki (GST-Bcl-XL) of 119 nM and an EC50 (FL5.12/Bcl-2 cells) of 60.2 nM.
`CN1CC(Nc2ccc(S(=O)(=O)NC(=O)c3ccc(N4CCN(CC5=C(c6ccc(Cl)cc6)CC(C)(C)CC5)CC4)cc3Oc3ccc4[nH]ccc4c3)cc2[N+](=O)[O-])CCC1=O` (stereo not drawn) [Example 282, 4-(4-{[2-(4-chlorophenyl)-4,4-dimethylcyclohex-1-en-1-yl]methyl}piperazin-1-yl)-2-(1H-indol-5-yloxy)-N-({4-[(1-methyl-6-oxopiperidin-3-yl)amino]-3-nitrophenyl}sulfonyl)benzamide] was tested, and the Ki (GST-Bcl-2) was 0.164 nM, the Ki (GST-Bcl-XL) was 562 nM and the EC50 (FL5.12/Bcl-2 cells) was 92.2 nM.
In the case of `CC1(C)CCC(CN2CCN(c3ccc(C(=O)NS(=O)(=O)c4ccc(NN5CCCCC5)c([N+](=O)[O-])c4)c(Oc4cccc5[nH]ccc45)c3)CC2)=C(c2ccc(Cl)cc2)C1` [Example 283, 4-(4-{[2-(4-chlorophenyl)-4,4-dimethylcyclohex-1-en-1-yl]methyl}piperazin-1-yl)-2-(1H-indol-4-yloxy)-N-{[3-nitro-4-(piperidin-1-ylamino)phenyl]sulfonyl}benzamide], the Ki (GST-Bcl-2) is reported as 47.5 nM, the Ki (GST-Bcl-XL) is reported as over 660 nM and the EC50 (FL5.12/Bcl-2 cells) is reported as over 500 nM.
`CC1(C)CCC(CN2CCN(c3ccc(C(=O)NS(=O)(=O)c4ccc(NN5CCCCC5)c([N+](=O)[O-])c4)c(Oc4ccc5[nH]ccc5c4)c3)CC2)=C(c2ccc(Cl)cc2)C1` [Example 284, 4-(4-{[2-(4-chlorophenyl)-4,4-dimethylcyclohex-1-en-1-yl]methyl}piperazin-1-yl)-2-(1H-indol-5-yloxy)-N-{[3-nitro-4-(piperidin-1-ylamino)phenyl]sulfonyl}benzamide] gave a Ki (GST-Bcl-2) of 1.55 nM, a Ki (GST-Bcl-XL) of over 660 nM and an EC50 (FL5.12/Bcl-2 cells) of over 500 nM.
Compound `Cn1ncc(-c2ccc(Cl)cc2)c1CN1CCN(c2ccc(C(=O)NS(=O)(=O)c3ccc(NCC4CCOCC4)c([N+](=O)[O-])c3)c(Oc3ccc4[nH]ccc4c3)c2)CC1` [Example 285, 4-(4-{[4-(4-chlorophenyl)-1-methyl-1H-pyrazol-5-yl]methyl}piperazin-1-yl)-2-(1H-indol-5-yloxy)-N-({3-nitro-4-[(tetrahydro-2H-pyran-4-ylmethyl)amino]phenyl}sulfonyl)benzamide] has a Ki (GST-Bcl-2) of 6.99 nM, a Ki (GST-Bcl-XL) of over 660 nM and an EC50 (FL5.12/Bcl-2 cells) of over 500 nM.
In the case of `CC1(C)CCC(CN2CCN(c3ccc(C(=O)NS(=O)(=O)c4ccc(OCC5(C)COC5)c([N+](=O)[O-])c4)c(Oc4ccc5[nH]ccc5c4)c3)CC2)=C(c2ccc(Cl)cc2)C1` [Example 286, 4-(4-{[2-(4-chlorophenyl)-4,4-dimethylcyclohex-1-en-1-yl]methyl}piperazin-1-yl)-2-(1H-indol-5-yloxy)-N-({4-[(3-methyloxetan-3-yl)methoxy]-3-nitrophenyl}sulfonyl)benzamide], the Ki (GST-Bcl-2) is reported as 0.567 nM, the Ki (GST-Bcl-XL) is reported as over 660 nM and the EC50 (FL5.12/Bcl-2 cells) is reported as 279 nM.
